Measurements as given in ChEMBL document CHEMBL1201862, “PubChem BioAssay data set” (2004).
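Briefly, cells in 96-well plates were exposed to five compound concentrations for 48 h, and endpoints were estimated by linear interpolation. The concentration for 50% growth inhibition is given as GI50.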 The source made the active and inactive calls. No stated cut-off is given here; in the data, active = GI50 up to about 1.1 µM and inactive = higher.

Key:
Experiment in all cases: inhibition of tumour cell growth, NCI panel, 48 h
MOLT-4 = tested on: MOLT-4
EKVX = tested on: EKVX
MDA-MB-435 = tested on: MDA-MB-435
MCF7 = tested on: MCF7
SK-MEL-28 = tested on: SK-MEL-28
ACHN = tested on: ACHN
Hs-578T = tested on: Hs-578T
K562 = tested on: K562
HOP-62 = tested on: HOP-62
SNB-75 = tested on: SNB-75
SNB-19 = tested on: SNB-19
LOX IMVI = tested on: LOX IMVI
UACC-62 = tested on: UACC-62
HCT-116 = tested on: HCT-116
NCI-H460 = tested on: NCI-H460
SK-MEL-5 = tested on: SK-MEL-5
HOP-92 = tested on: HOP-92
MDA-N = tested on: MDA-N
SF-295 = tested on: SF-295
UO-31 = tested on: UO-31

Measured: GI50

COc1cccc(N2C(=O)C3CC(CC(C)(C)C)c4c([nH]c5ccccc45)C3C2=O)c1 (centres undefined)
inactive: MOLT-4 > 10 µM | EKVX > 10 µM | MDA-MB-435 > 10 µM | MCF7 8.55 µM | SK-MEL-28 > 10 µM | ACHN > 10 µM | Hs-578T 3.5 µM | K562 > 10 µM | HOP-62 9.16 µM | SNB-75 1.84 µM | SNB-19 > 10 µM | LOX IMVI 9.44 µM | UACC-62 > 10 µM | HCT-116 4.93 µM | NCI-H460 6.47 µM | SK-MEL-5 > 10 µM | HOP-92 > 10 µM | MDA-N > 10 µM | SF-295 > 10 µM

CCOC(=O)C1CCCCN1C(=O)Cc1c[nH]c2ccccc12 (centres undefined)
inactive: MOLT-4 27.4 µM | EKVX 59.2 µM | MDA-MB-435 34.4 µM | MCF7 37.5 µM | SK-MEL-28 > 100 µM | ACHN 71.4 µM | Hs-578T 24.8 µM | K562 68.9 µM | HOP-62 87.9 µM | SNB-75 40 µM | SNB-19 > 100 µM | LOX IMVI 59.4 µM | UACC-62 45.4 µM | HCT-116 > 100 µM | NCI-H460 > 100 µM | HOP-92 16 µM | MDA-N 49.8 µM | SF-295 66.2 µM

O=C1C=C(c2ccccc2)O/C1=C/C(=O)c1ccc(Cl)cc1
inactive: MOLT-4 2.85 µM | EKVX 90.4 µM | MDA-MB-435 15.2 µM | MCF7 16.5 µM | SK-MEL-28 18 µM | ACHN 16.6 µM | Hs-578T 22.1 µM | K562 8.13 µM | HOP-62 30.5 µM | SNB-75 10.6 µM | SNB-19 35.5 µM | LOX IMVI 13.3 µM | UACC-62 14 µM | HCT-116 16.4 µM | NCI-H460 20.2 µM | SK-MEL-5 16.7 µM | HOP-92 19.2 µM | UO-31 23.3 µM | MDA-N 16.1 µM

N#Cc1c(N2CCC(O)C2)c2ccccc2n2c1nc1ccccc12 (centres undefined)
inactive: MOLT-4 > 100 µM | EKVX > 100 µM | MDA-MB-435 > 100 µM | MCF7 > 100 µM | SK-MEL-28 > 100 µM | ACHN 18.2 µM | Hs-578T 29.2 µM | HOP-62 18.6 µM | SNB-75 25.1 µM | SNB-19 32.1 µM | LOX IMVI > 100 µM | UACC-62 > 100 µM | HCT-116 > 100 µM | NCI-H460 > 100 µM | SK-MEL-5 > 100 µM | HOP-92 41.1 µM | UO-31 > 100 µM | MDA-N > 100 µM | SF-295 31 µM

CC1(C)CC2=C(SC3C=CC=CC3N2)C(=O)C1C(=O)C(N)=O (centres undefined)
inactive: MOLT-4 40.4 µM | EKVX > 100 µM | MDA-MB-435 > 100 µM | MCF7 > 100 µM | SK-MEL-28 > 100 µM | ACHN > 100 µM | Hs-578T > 100 µM | HOP-62 > 100 µM | SNB-75 > 100 µM | SNB-19 > 100 µM | LOX IMVI > 100 µM | UACC-62 > 100 µM | HCT-116 > 100 µM | NCI-H460 > 100 µM | SK-MEL-5 > 100 µM | HOP-92 > 100 µM | UO-31 54.5 µM | MDA-N > 100 µM | SF-295 > 100 µM
